# Measurements: patent US8785483B2, “Methods for treating COPD” (The Board of Regents of the University of Texas System, priority 2010, dated 2014)
# Tested on: SPDEF
# Assay: Western blot of SPDEF in IL-13-treated SAEC monolayer
# Assay type: cell-based, human
# Settings: airway epithelial monolayer, IL-13 24 and 48 h, immunoblotting
# Description: FIGS. 6A-6B. AR inhibition prevents IL-13-induced expression of Mucin and transcription factor SPDEF in airway epithelial cell monolayer. (A) The airway epithelial cell monolayer at ALI was serum starved without or with fidarestat and incubated with IL-13 for 18 h. Total RNA was isolated and subsequently RT-PCR was performed to assess the expression of Muc5AC and SPDEF. The bar diagrams show densitometric analysis of the corresponding blots (n=4). *p<0.001 vs Control; **p<0.001 vs IL-13; (B) The monolayer of ciliated airway cells at ALI was treated with AR inhibitor for 24 h and subsequently incubated with IL-13 for 24 or 48 h. At the end of incubation, cell lysate was prepared and subjected to western blotting using antibodies against Muc5AC, Muc5B, and SPDEF. The membranes were stripped and re-probed with antibodies against GAPDH to show the equal loading of protein. A representative blot is shown (n=4). *p<0.0001 vs Control; **p<0.001 vs IL-13. […] Protein levels were determined using Bradford reagent (Biorad, Hercules, Calif.). […] The blots were then washed, exposed to HRP-conjugated secondary antibodies (1:5,000 dilution) for 1 h, and the antigen-antibody complex was detected by enhanced chemiluminescence (Amersham Pharmacia Biotech, Piscataway, N.J., USA). […]
smiles,measurement,value
"NC(=O)[C@@H]1C[C@]2(NC(=O)NC2=O)c2cc(F)ccc2O1 [fidarestat, (2S,4S)-2-aminoformyl-6-fluoro-spiro[chroman-4,4′-imidazolidine]-2′,5′-dione]",prevention of IL-13-induced increase in SPDEF protein,~50%
